Results reported in the supplement of paper PMC10307832.

Experiments:
Experiment in all cases: relative viability (nuclei count vs DMSO), 5 days (fraction); higher = more cells survive
[1] = compound: C1COCCN1C2=NC(=NC3=C2OC4=C3C=CC=N4)C5=CC(=CC=C5)NC(=O)C6=CN=C(C=C6)N + O=C(CCCCCCC(=O)Nc1ccccc1)NO [Vorinostat] (partner 1 µM)
Procedure, shortened: (§1)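 Each reported value is a median over duplicate plates. It expresses relative viability: treated-well nuclei count divided by vehicle-well nuclei count. Lung cancer cell lines in 1536-well plates were dosed by pin tool a day after seeding, alone with one drug or with a fixed anchor-drug dose plus five library-drug doses (not always all listed) in √10 steps, and nuclei were counted after 5 days.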

SGI-1776 + Alpelisib = compound: CN1CCC(CNc2ccc3ncc(-c4cccc(OC(F)(F)F)c4)n3n2)CC1 [SGI-1776] + Cc1nc(NC(=O)N2CCC[C@H]2C(N)=O)sc1-c1ccnc(C(C)(C)C(F)(F)F)c1 [Alpelisib] (partner 2 µM)
Procedure, shortened: as §1

[2] = compound: C1COCCN1C2=NC(=NC3=C2OC4=C3C=CC=N4)C5=CC(=CC=C5)NC(=O)C6=CN=C(C=C6)N + NC(=O)Nc1cc(-c2cccc(F)c2)sc1C(=O)N[C@H]1CCCNC1 [AZD7762] (partner 0.2 µM)
Procedure, shortened: as §1

SGI-1776 + Bortezomib = compound: CN1CCC(CNc2ccc3ncc(-c4cccc(OC(F)(F)F)c4)n3n2)CC1 [SGI-1776] + CC(C)C[C@H](NC(=O)[C@H](Cc1ccccc1)NC(=O)c1cnccn1)B(O)O [Bortezomib] (partner 0.002 µM)
Procedure, shortened: as §1

Cell Line	relative viability ([1]; first compound 0.02 µM)	relative viability ([1]; first compound 0.06325 µM)	relative viability ([1]; first compound 0.2 µM)	relative viability ([1]; first compound 0.6325 µM)	relative viability ([1]; first compound 2 µM)	relative viability (SGI-1776 + Alpelisib; first compound 0.08 µM)	relative viability (SGI-1776 + Alpelisib; first compound 0.8 µM)	relative viability (SGI-1776 + Alpelisib; first compound 2.53 µM)	relative viability (SGI-1776 + Alpelisib; first compound 8 µM)	relative viability ([2]; first compound 0.02 µM)	relative viability ([2]; first compound 0.06325 µM)	relative viability ([2]; first compound 0.2 µM)	relative viability ([2]; first compound 0.6325 µM)	relative viability ([2]; first compound 2 µM)	relative viability (SGI-1776 + Bortezomib; first compound 0.08 µM)	relative viability (SGI-1776 + Bortezomib; first compound 0.8 µM)	relative viability (SGI-1776 + Bortezomib; first compound 2.53 µM)	relative viability (SGI-1776 + Bortezomib; first compound 8 µM)
NCI-H1993	0.831	0.701	0.634	0.723	0.563	0.631	0.684	0.687	0.594	1.02	0.668	0.747	0.759	0.443	1.21	1.14	0.967	0.803
NCI-H2085	0.736	0.802	0.75	0.704	0.706	1.01	0.96	0.978	0.844	0.934	0.969	0.874	0.646	0.598	1.14	1.16	1	0.922
NCI-H2087	0.611	0.911	0.842	0.724	0.199	1.1	1.06	1.18	0.997	1.35	1.44	1.32	1.17	0.647	0.772	0.802	0.982	0.722
NCI-H2126	0.707	0.941	0.758	0.786	0.582	0.735	0.733	0.751	0.676	0.989	1.03	1.03	0.989	0.736	1.15	1.18	1.04	1.13
NCI-H2347	0.582	0.494	0.645	0.528	0.559	1.1	1.07	1.1	1.01	0.768	0.787	0.683	0.666	0.618	1.04	0.961	1.15	0.897
NCI-H2405	1.07	1.07	1.03	0.921	0.645	0.865	0.766	0.739	0.383	0.829	0.724	0.716	0.673	0.483	1.04	0.997	0.896	0.924
NCI-H3122	0.924	1.09	0.946	1.06	0.639	0.707	0.837	0.868	0.757	0.973	1.01	0.99	0.973	0.667	1.06	1.01	1.08	1.01
PC-3 [JPC-3]	0.729	0.678		0.662	0.638	1.1	0.946	1.06	0.971	0.904	0.752		0.784	0.625	0.867	0.806	0.845	0.687
PC-14	0.784	0.816	0.648	0.603	0.362	1.12	0.956	0.976	0.757	0.349	0.352	0.242	0.332	0.23	0.846	0.915	0.99	0.566
RERF-LC-KJ	0.696	0.782	0.653	0.603	0.598	0.805	0.844	0.926	0.666	0.882	1.18	0.997	0.945	0.794	1.1	1.08	0.956	1.04
